Experimental findings from ChEMBL document CHEMBL4342489, “Structure-Activity Relationship Evaluation of Wasp Toxin β-PMTX Leads to Analogs with Superior Activity for Human Neuronal Sodium Channels” (ACS Med Chem Lett, 2020) are described below.

What all share (format): cell-based
Experiment [1] concerns the target Sodium channel protein type 1 subunit alpha (Homo sapiens) (UniProt P35498). Kind of experiment: Activation of human Nav1.1 expressed in HEK293 cells assessed as ratio of compound activation AUC to baseline activation AUC at 0.12 uM at -120 mV holding potential by Qpatch assay. (The patch-clamp technique gives a direct electrical read-out from membranes.)
Experiment [2] shares this target. Kind of experiment: Activation of human Nav1.1 expressed in HEK293 cells assessed as ratio of compound activation AUC to baseline activation AUC at 0.37 uM at -120 mV holding potential by Qpatch assay.
Experiment [3] has the same target. Kind of experiment: Activation of human Nav1.1 expressed in HEK293 cells assessed as ratio of compound activation AUC to baseline activation AUC at 3.3 uM at -120 mV holding potential by Qpatch assay.
Experiment [4] shares this target. Kind of experiment: Activation of human Nav1.1 expressed in HEK293 cells assessed as ratio of compound activation AUC to baseline activation AUC at 1.11 uM at -120 mV holding potential by Qpatch assay.

Positions of bridges follow the written chain, without caps; N, C: chain ends. Non-standard residues stand in square brackets, D forms with d. Residues, ends and D or L forms follow the SMILES beside them. Phe(4-Cl) = N[C@@H](Cc1ccc(Cl)cc1)C(=O)O

Turning to `CC[C@H](C)[C@H](NC(=O)[C@@H](N)CCCNC(=N)N)C(=O)N[C@@H](CCCCN)C(=O)N[C@H](C(=O)N1CCC[C@@H]1C(=O)N[C@@H](CC(C)C)C(=O)N[C@@H](Cc1ccccc1)C(=O)N[C@@H](CC(=O)O)C(=O)N[C@@H](CCC(N)=O)C(=O)N[C@@H](CC(C)C)C(=O)N[C@@H](CO)C(=O)N[C@@H](CCCNC(=N)N)C(=O)N[C@@H](CC(C)C)C(N)=O)[C@@H](C)CC`, the Ratio AUC in experiment [1] came out at 1; in experiment [2], 1.1; in experiment [3], 1.1; in experiment [4], 1.1.

With `CC[C@H](C)[C@H](NC(=O)[C@H](CCCCN)NC(=O)[C@@H](NC(=O)[C@@H](N)CCCNC(=N)N)[C@@H](C)CC)C(=O)N[C@H](C)C(=O)N[C@@H](CC(C)C)C(=O)N[C@@H](Cc1ccccc1)C(=O)N[C@@H](CC(=O)O)C(=O)N[C@@H](CCC(N)=O)C(=O)N[C@@H](CC(C)C)C(=O)N[C@@H](CO)C(=O)N[C@@H](CCCNC(=N)N)C(=O)N[C@@H](CC(C)C)C(N)=O`, the Ratio AUC in experiment [1] was found to be 0.1; in experiment [2], 0.1; in experiment [3], 1.1; in experiment [4], 1.

As for `CC[C@H](C)[C@@H]1NC(=O)[C@H](CCCCN)NC(=O)[C@H]([C@@H](C)CC)NC(=O)[C@@H](N)CSSC[C@@H](C(=O)N[C@@H](CCC(N)=O)C(=O)N[C@@H](CC(C)C)C(=O)N[C@@H](CO)C(=O)N[C@@H](CCCNC(=N)N)C(=O)N[C@@H](CC(C)C)C(N)=O)NC(=O)[C@H](Cc2ccccc2)NC(=O)[C@H](CC(C)C)NC(=O)CNC1=O` (H-CIKIGLFCQLSRL-NH2; disulfide 1-8), the Ratio AUC in experiment [1] stood at 1; in experiment [2], 1.1; in experiment [3] it was 1.1; in experiment [4], 1.

Regarding `CC[C@H](C)[C@H](NC(=O)[C@H](CCCCN)NC(=O)[C@@H](NC(=O)[C@@H](N)CC(=O)O)[C@@H](C)CC)C(=O)NCC(=O)N[C@@H](CC(C)C)C(=O)N[C@@H](Cc1ccccc1)C(=O)N[C@@H](CCCNC(=N)N)C(=O)N[C@@H](CCC(N)=O)C(=O)N[C@@H](CC(C)C)C(=O)N[C@@H](CO)C(=O)N[C@@H](CCCNC(=N)N)C(=O)N[C@@H](CC(C)C)C(N)=O` (H-DIKIGLFRQLSRL-NH2), the Ratio AUC in experiment [1] was found to be 1; in experiment [2], 1.1; in experiment [3], 1.1; in experiment [4], 1.1.

For the molecule `CC[C@H](C)[C@@H]1NC(=O)[C@@H](NC(=O)[C@@H](NC(=O)[C@@H](N)CCCNC(=N)N)[C@@H](C)CC)CSSC[C@@H](C(=O)N[C@@H](CCC(N)=O)C(=O)N[C@@H](CC(C)C)C(=O)N[C@@H](CO)C(=O)N[C@@H](CCCNC(=N)N)C(=O)N[C@@H](CC(C)C)C(N)=O)NC(=O)[C@H](Cc2ccccc2)NC(=O)[C@H](CC(C)C)NC(=O)CNC1=O` (H-RICIGLFCQLSRL-NH2; disulfide 3-8), the Ratio AUC in experiment [1] was found to be 1.1; in experiment [2], 0.9; in experiment [3], 1; in experiment [4], 0.9.

Regarding `CC[C@H](C)[C@H](NC(=O)[C@H](CC(=O)O)NC(=O)[C@@H](NC(=O)[C@@H](N)CCCNC(=N)N)[C@@H](C)CC)C(=O)NCC(=O)N[C@@H](CC(C)C)C(=O)N[C@@H](Cc1ccccc1)C(=O)N[C@@H](CCCCN)C(=O)N[C@@H](CCC(N)=O)C(=O)N[C@@H](CC(C)C)C(=O)N[C@@H](CO)C(=O)N[C@@H](CCCNC(=N)N)C(=O)N[C@@H](CC(C)C)C(N)=O` (H-RIDIGLFKQLSRL-NH2), the Ratio AUC in experiment [1], in experiment [2], in experiment [3] and in experiment [4] was 1.1 each time.

`CC[C@H](C)[C@H](NC(=O)[C@H](CCCCN)NC(=O)[C@@H](NC(=O)[C@@H](N)CCCNC(=N)N)[C@@H](C)CC)C(=O)NCC(=O)N[C@@H](CC(C)C)C(=O)N[C@@H](Cc1c[nH]c2ccccc12)C(=O)N[C@@H](CC(=O)O)C(=O)N[C@@H](CCC(N)=O)C(=O)N[C@@H](CC(C)C)C(=O)N[C@@H](CO)C(=O)N[C@@H](CCCNC(=N)N)C(=O)N[C@@H](CC(C)C)C(N)=O` (H-RIKIGLWDQLSRL-NH2): the Ratio AUC in experiment [1] worked out at 1; in experiment [2], 0.9; in experiment [3], 1; in experiment [4], 0.9.

Turning to `CC[C@H](C)[C@H](NC(=O)[C@H](CCCNC(=N)N)NC(=O)[C@@H](NC(=O)[C@@H](N)CCCNC(=N)N)[C@@H](C)CC)C(=O)NCC(=O)N[C@@H](CC(C)C)C(=O)N[C@@H](Cc1ccccc1)C(=O)N[C@@H](CC(=O)O)C(=O)N[C@@H](CCC(N)=O)C(=O)N[C@@H](CC(C)C)C(=O)N[C@@H](Cc1ccccc1)C(=O)N[C@@H](CCCNC(=N)N)C(=O)N[C@@H](CC(C)C)C(N)=O` (H-RIRIGLFDQLFRL-NH2), the Ratio AUC came to 1 in experiment [1], 1.1 in experiment [2], 2.7 in experiment [3] and 1.6 in experiment [4].

Consider `CC[C@H](C)[C@H](NC(=O)[C@H](CCCNC(=N)N)NC(=O)[C@@H](NC(=O)[C@@H](N)CCCNC(=N)N)[C@@H](C)CC)C(=O)NCC(=O)N[C@@H](CC(C)C)C(=O)N[C@@H](Cc1ccccc1)C(=O)N[C@@H](CC(=O)O)C(=O)N[C@@H](CCC(N)=O)C(=O)N[C@@H](CC(C)C)C(=O)N[C@@H](CC(C)C)C(=O)N[C@@H](CCCNC(=N)N)C(=O)N[C@@H](CC(C)C)C(N)=O` (H-RIRIGLFDQLLRL-NH2), for which the Ratio AUC turned out to be 1.1 in experiment [1], 1.6 in experiment [2], 5.8 in experiment [3] and 2.9 in experiment [4].

Consider `CC[C@H](C)[C@H](NC(=O)[C@H](CCCNC(=N)N)NC(=O)[C@@H](NC(=O)[C@@H](N)CCCNC(=N)N)[C@@H](C)CC)C(=O)NCC(=O)N[C@@H](CC(C)C)C(=O)N[C@@H](Cc1ccccc1)C(=O)N[C@@H](CC(=O)O)C(=O)N[C@@H](CCC(N)=O)C(=O)N[C@@H](CC(C)C)C(=O)N[C@@H](CO)C(=O)N[C@@H](CCCNC(=N)N)C(=O)N[C@@H](CC(C)C)C(N)=O` (H-RIRIGLFDQLSRL-NH2), for which the Ratio AUC in experiment [1] is 1; in experiment [2], 1.1; in experiment [3] it was 2; in experiment [4], 1.3.

Regarding `CC[C@H](C)[C@H](NC(=O)[C@H](CCCNC(=N)N)NC(=O)[C@@H](NC(=O)[C@@H](N)CCCNC(=N)N)[C@@H](C)CC)C(=O)NCC(=O)N[C@@H](CC(C)C)C(=O)N[C@@H](Cc1ccccc1)C(=O)N[C@@H](CC(=O)O)C(=O)N[C@@H](CCC(N)=O)C(=O)N[C@@H](CC(C)C)C(=O)N[C@@H](Cc1c[nH]c2ccccc12)C(=O)N[C@@H](CCCNC(=N)N)C(=O)N[C@@H](CC(C)C)C(N)=O` (H-RIRIGLFDQLWRL-NH2), the Ratio AUC is 1.2 in experiment [1], 1.6 in experiment [2], 4.3 in experiment [3] and 2.8 in experiment [4].

Take `CC[C@H](C)[C@H](NC(=O)[C@H](CCCNC(=N)N)NC(=O)[C@@H](NC(=O)[C@@H](N)CCCNC(=N)N)[C@@H](C)CC)C(=O)NCC(=O)N[C@@H](CC(C)C)C(=O)N[C@@H](Cc1ccccc1)C(=O)N[C@@H](CC(=O)O)C(=O)N[C@@H](CCC(N)=O)C(=O)N[C@@H](CC(C)C)C(=O)N[C@@H](Cc1ccc(O)cc1)C(=O)N[C@@H](CCCNC(=N)N)C(=O)N[C@@H](CC(C)C)C(N)=O` (H-RIRIGLFDQLYRL-NH2): the Ratio AUC in experiment [1] turned out to be 1; in experiment [2] it was 1.1; in experiment [3], 2; in experiment [4] it was 1.5.

As to `CC[C@H](C)[C@H](NC(=O)[C@H](CCCNC(=N)N)NC(=O)[C@@H](NC(=O)[C@@H](N)CCCNC(=N)N)[C@@H](C)CC)C(=O)NCC(=O)N[C@@H](CC(C)C)C(=O)N[C@@H](Cc1ccccc1)C(=O)N[C@@H](CC(=O)O)C(=O)N[C@@H](CCC(N)=O)C(=O)N[C@@H](CC(C)C)C(=O)N[C@@H](Cc1ccc(Cl)cc1)C(=O)N[C@@H](CCCNC(=N)N)C(=O)N[C@@H](CC(C)C)C(N)=O` (H-RIRIGLFDQL[Phe(4-Cl)]RL-NH2), the Ratio AUC was determined as 1.1 in experiment [1], 1.2 in experiment [2], 3.5 in experiment [3] and 1.8 in experiment [4].

Consider `CC[C@H](C)[C@H](NC(=O)[C@H](CCCCN)NC(=O)[C@H](CC(C)C)NC(=O)[C@@H](N)CCCNC(=N)N)C(=O)NCC(=O)N[C@@H](CC(C)C)C(=O)N[C@@H](Cc1ccccc1)C(=O)N[C@@H](CC(=O)O)C(=O)N[C@@H](CCC(N)=O)C(=O)N[C@@H](CC(C)C)C(=O)N[C@@H](CO)C(=O)N[C@@H](CCCNC(=N)N)C(=O)N[C@@H](CC(C)C)C(N)=O` (H-RLKIGLFDQLSRL-NH2), for which the Ratio AUC in experiment [1], in experiment [2], in experiment [3] and in experiment [4] was 1 each time.
